Laboratory results published in ChEMBL document CHEMBL1201862, “PubChem BioAssay data set” (2004).
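Interpolation was linear, between the two tested concentrations surrounding the appropriate level; five concentrations were tested over 48 hours in 96-well plates. Abbreviation: GI50, concentration required for 50% inhibition of growth.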 The source made the active and inactive calls. Cut-off read from the data, not from the text of the source: active = GI50 up to about 1.1 µM and inactive = higher.

Columns and labels:
Test in all cases: NCI anticancer screen, dose series, 48 h
786-0 = test system: 786-0
BT-549 = test system: BT-549
HCT-116 = test system: HCT-116
HCT-15 = test system: HCT-15
HT-29 = test system: HT-29
K562 = test system: K562
LOX IMVI = test system: LOX IMVI
Malme-3M = test system: Malme-3M
NCI-H460 = test system: NCI-H460
OVCAR-3 = test system: OVCAR-3
SN12C = test system: SN12C
T47D = test system: T47D
TK-10 = test system: TK-10
U-251 = test system: U-251
DU-145 = test system: DU-145
KM12 = test system: KM12
MCF7 = test system: MCF7
SF-539 = test system: SF-539
SK-OV-3 = test system: SK-OV-3
SNB-75 = test system: SNB-75

Row | SMILES | GI50 (786-0) | GI50 (BT-549) | GI50 (HCT-116) | GI50 (HCT-15) [µM] | GI50 (HT-29) | GI50 (K562) | GI50 (LOX IMVI) | GI50 (Malme-3M) | GI50 (NCI-H460) | GI50 (OVCAR-3) | GI50 (SN12C) | GI50 (T47D) | GI50 (TK-10) | GI50 (U-251) | GI50 (DU-145) | GI50 (KM12) | GI50 (MCF7) | GI50 (SF-539) | GI50 (SK-OV-3) | GI50 (SNB-75)
1 | COc1cc(NCCC(=O)O)c2ncccc2c1 | > 100 µM (inactive) | > 100 µM (inactive) | > 100 µM (inactive) | > 100 | > 100 µM (inactive) | > 100 µM (inactive) | > 100 µM (inactive) | > 100 µM (inactive) | > 100 µM (inactive) | > 100 µM (inactive) | > 100 µM (inactive) | > 100 µM (inactive) | > 100 µM (inactive) | > 100 µM (inactive) |  |  |  |  |  | 
2 | O=C(O)CCCc1nc2c(n1-c1ccccc1)C(=O)c1ccccc1C2=O | > 100 µM (inactive) |  | 49.1 µM (inactive) | 74.5 |  | 69.8 µM (inactive) | > 100 µM (inactive) | 21.6 µM (inactive) | > 100 µM (inactive) | 33.6 µM (inactive) | 52.5 µM (inactive) | > 100 µM (inactive) | > 100 µM (inactive) | > 100 µM (inactive) | > 100 µM (inactive) | 31.3 µM (inactive) | 32.6 µM (inactive) | 94 µM (inactive) | > 100 µM (inactive) | 43.5 µM (inactive)
3 | COC(=O)/C=C(\C)CC/C=C(\C)CCC1OC1(C)C (configuration not stated) | 12.6 µM (inactive) | 11.5 µM (inactive) | 12.5 µM (inactive) | 11.8 | 14 µM (inactive) | 3.11 µM (inactive) | 2.53 µM (inactive) | 14.6 µM (inactive) | 13.2 µM (inactive) | 11.7 µM (inactive) | 10.2 µM (inactive) |  | 12.4 µM (inactive) | 11.8 µM (inactive) |  | 9.48 µM (inactive) | 11.5 µM (inactive) | 13.5 µM (inactive) | 23.7 µM (inactive) | 17.4 µM (inactive)
4 | C1CN2N3CCCC23C1 (configuration not stated) | > 100 µM (inactive) |  | > 100 µM (inactive) | > 100 | > 100 µM (inactive) | > 100 µM (inactive) | > 100 µM (inactive) | > 100 µM (inactive) | > 100 µM (inactive) | > 100 µM (inactive) | > 100 µM (inactive) |  | > 100 µM (inactive) | > 100 µM (inactive) |  | > 100 µM (inactive) |  | > 100 µM (inactive) | > 100 µM (inactive) | > 100 µM (inactive)
5 | CCN(CC)CCOc1ccc(N2C(=O)c3cccc4cc([N+](=O)[O-])cc(c34)C2=O)cc1 | 4.76 µM (inactive) |  | 3.88 µM (inactive) | 6.64 | 4.91 µM (inactive) |  | 3.88 µM (inactive) | 13.8 µM (inactive) | 0.524 µM (active) |  | 17.4 µM (inactive) | 19.7 µM (inactive) | 13.3 µM (inactive) | 10.8 µM (inactive) | 10.8 µM (inactive) | 12.5 µM (inactive) | 3.56 µM (inactive) | 9.02 µM (inactive) |  | 14.5 µM (inactive)
6 | COc1c(Br)cc(Br)c(OC)c1-c1[nH]c(Br)c(Br)c1Br | 10.7 µM (inactive) |  | 3.25 µM (inactive) | 4.28 | 4.17 µM (inactive) | 4.01 µM (inactive) | 11.7 µM (inactive) | 3.74 µM (inactive) | 9.48 µM (inactive) | 3.66 µM (inactive) | 5.9 µM (inactive) |  | 11.4 µM (inactive) | 10.4 µM (inactive) |  | 4.48 µM (inactive) |  | 9.98 µM (inactive) | 13.6 µM (inactive) | 4.45 µM (inactive)
7 | Nc1ccc(C23CC4CC(C2)CC(c2ccc(N)cc2)(C4)C3)cc1 | 38.5 µM (inactive) | 42.9 µM (inactive) | 44.3 µM (inactive) | 14.5 |  | 14.6 µM (inactive) | > 100 µM (inactive) |  | 37.2 µM (inactive) | 48.5 µM (inactive) | 25.1 µM (inactive) |  | > 100 µM (inactive) | 14.3 µM (inactive) | 51.2 µM (inactive) | > 100 µM (inactive) | 31.8 µM (inactive) | 16.4 µM (inactive) |  | 
8 | O=c1[nH]nc(-c2ccccc2)n1O | > 100 µM (inactive) |  | > 100 µM (inactive) | > 100 | > 100 µM (inactive) | > 100 µM (inactive) | > 100 µM (inactive) | > 100 µM (inactive) | > 100 µM (inactive) | > 100 µM (inactive) | > 100 µM (inactive) | > 100 µM (inactive) | > 100 µM (inactive) | > 100 µM (inactive) | > 100 µM (inactive) | > 100 µM (inactive) | > 100 µM (inactive) | > 100 µM (inactive) | > 100 µM (inactive) | 
9 | CC(C)Cc1ccc(C(C)/C=C2\CCC(CN(C)C)C2=O)cc1 (configuration not stated) | 2.96 µM (inactive) | 17.1 µM (inactive) | 7.05 µM (inactive) | 9.18 | 13.8 µM (inactive) | 2.86 µM (inactive) | 6.97 µM (inactive) | 17 µM (inactive) | 20 µM (inactive) | 12.7 µM (inactive) | 10 µM (inactive) |  | 9.23 µM (inactive) | 16.7 µM (inactive) | 11.4 µM (inactive) | 5.27 µM (inactive) | 4.43 µM (inactive) | 16.5 µM (inactive) | 19.5 µM (inactive) | 14.1 µM (inactive)
10 | CCOC(=O)C(=O)C=P(c1ccccc1)(c1ccccc1)c1ccccc1 | > 100 µM (inactive) |  | > 100 µM (inactive) | > 100 | > 100 µM (inactive) | > 100 µM (inactive) | > 100 µM (inactive) | > 100 µM (inactive) | 34.6 µM (inactive) | > 100 µM (inactive) | > 100 µM (inactive) |  | > 100 µM (inactive) | > 100 µM (inactive) |  | > 100 µM (inactive) |  | > 100 µM (inactive) | > 100 µM (inactive) | > 100 µM (inactive)
11 | COC(=O)/C1=C/C=C\C[C@@]2(C)CC(c3ccoc3)OC(=O)[C@@H]2CC[C@H]1C (some centres not stated) | > 25 µM (inactive) | > 25 µM (inactive) | > 25 µM (inactive) | > 25 | > 25 µM (inactive) | > 25 µM (inactive) | > 25 µM (inactive) | > 25 µM (inactive) | > 25 µM (inactive) | > 25 µM (inactive) | > 25 µM (inactive) |  | > 25 µM (inactive) | > 25 µM (inactive) |  | > 25 µM (inactive) | > 25 µM (inactive) | > 25 µM (inactive) | > 25 µM (inactive) | > 25 µM (inactive)
12 | O=[PH](O)c1ccccn1 | > 100 µM (inactive) |  | > 100 µM (inactive) | > 100 | > 100 µM (inactive) | > 100 µM (inactive) | > 100 µM (inactive) | > 100 µM (inactive) | > 100 µM (inactive) | > 100 µM (inactive) | > 100 µM (inactive) |  | > 100 µM (inactive) | > 100 µM (inactive) |  | > 100 µM (inactive) |  | > 100 µM (inactive) | > 100 µM (inactive) | > 100 µM (inactive)
13 | C=C1[C@@H](OC(C)=O)[C@H]2[C@@H](OC(C)=O)[C@@](C)(OC(C)=O)C[C@]2(OC(C)=O)C(=O)[C@@H](C)/C=C/C(C)(C)C(=O)C[C@H]1OC(C)=O | > 100 µM (inactive) |  | > 100 µM (inactive) | > 100 | 36.6 µM (inactive) | > 100 µM (inactive) | > 100 µM (inactive) | > 100 µM (inactive) |  | 47.2 µM (inactive) | > 100 µM (inactive) | > 100 µM (inactive) | > 100 µM (inactive) | > 100 µM (inactive) | > 100 µM (inactive) | > 100 µM (inactive) | > 100 µM (inactive) | > 100 µM (inactive) | > 100 µM (inactive) | > 100 µM (inactive)
14 | COCC#C[C@@]1(O)CCCCC1CC(OC)OC (some centres not stated) | > 100 µM (inactive) |  | 81.8 µM (inactive) | 76.2 | > 100 µM (inactive) | 49.7 µM (inactive) | 48 µM (inactive) | 64.9 µM (inactive) | > 100 µM (inactive) |  | > 100 µM (inactive) | > 100 µM (inactive) | > 100 µM (inactive) | > 100 µM (inactive) | > 100 µM (inactive) | > 100 µM (inactive) | 60 µM (inactive) |  | > 100 µM (inactive) | > 100 µM (inactive)
15 | O=C1[C@@H]2C[C@@H](O)CN2C(=O)c2ccccc2N1CCCO | > 100 µM (inactive) |  | > 100 µM (inactive) | > 100 | > 100 µM (inactive) | > 100 µM (inactive) | > 100 µM (inactive) |  | > 100 µM (inactive) | > 100 µM (inactive) | > 100 µM (inactive) | > 100 µM (inactive) | > 100 µM (inactive) | > 100 µM (inactive) | > 100 µM (inactive) | > 100 µM (inactive) | > 100 µM (inactive) | > 100 µM (inactive) | > 100 µM (inactive) | > 100 µM (inactive)
16 | O=[N+]([O-])c1cccc2c(/N=N/c3ccc4ccccc4c3O)c(O)cc(S(=O)(=O)O)c12 | 17.8 µM (inactive) | 74.6 µM (inactive) | 31 µM (inactive) | 14.1 | 34.1 µM (inactive) | > 100 µM (inactive) | 6.18 µM (inactive) | 14.6 µM (inactive) |  | 3.47 µM (inactive) | 64.7 µM (inactive) |  | 49.7 µM (inactive) | 9.59 µM (inactive) |  | 55.6 µM (inactive) |  |  | 76.2 µM (inactive) | 44 µM (inactive)
17 | Cc1ccc([N+](=O)[O-])c2c(NCCC[N+](C)(C)[O-])ccnc12 | > 100 µM (inactive) |  | 38.9 µM (inactive) | > 10 | 34.8 µM (inactive) | 27.5 µM (inactive) | 49.5 µM (inactive) | 44 µM (inactive) | 21.3 µM (inactive) | 33.9 µM (inactive) | > 100 µM (inactive) | 35.1 µM (inactive) | > 100 µM (inactive) | 83.6 µM (inactive) | 57.8 µM (inactive) | 40.1 µM (inactive) | 14.9 µM (inactive) | > 100 µM (inactive) | 52 µM (inactive) | 55.7 µM (inactive)
